Where “and” joins values, the source holds several entries; their conditions need not be identical. Equal entries are not always repeated. Where two headings read alike, the source gives them in different places.
Experiments:
[1] = system: female Wistar rats
Procedure: Neurotoxicity was detected by measuring sensory nerve conduction velocity (SNCV) in Wistar rats treated twice per week at the maximum tolerated dose. […] Animals and treatment Age-matched inbred female Wistar rats were used. Animals were allowed to acclimatize for 2 weeks before the start of the experiment. The animals were 10 weeks old and weighed 210- 240 g at the start of experiment. Platinum compounds (except JM216) were dissolved in sterile 0.9% (w/v) NaCl (Baxter Healthcare, New Zealand) by vortex mixing and sonication at an injection volume of 10 ml kg-1 . The platinum compounds (except JM216) were given by intraperitoneal injection on a twice per week dosing schedule at intervals of 3-4 days and the treatment was repeated weekly for a total of 8 weeks. […] Animals were weighed twice a week and checked for signs of toxicity daily. Animals showing signs of distress were immediately and painlessly killed. Animals had continuous access to food and water. […] Hypnorm (fluanisone 10 mg ml-1 , fentanyl citrate 0.3 mg ml-1 , Jansen Pharmaceuticals, Sydney, Australia) diluted 1:1 with sterile water was given by intramuscular injection to provide light anaesthesia. Responses were evoked by stimu- lating the sciatic nerve at the sciatic notch and the tibial nerve at the ankle of the left hind limb using percutaneous needle elec- trodes.

[2] = system: female Wistar rats; details: cited from earlier work
[3] = Hydrophobicity (log kw), reverse-phase HPLC coupled to ICP-MS; type: physicochemical; details: HPLC C8 column, actual or projected mobile phase 100% water; determinants from independent experiments
[4] = system: plasma proteins; set-up: method as in van der Vijgh and Klein, 1986; details: ref van der Vijgh and Klein, 1986; cited from earlier work
[5] = system: patients; details: cited from earlier work
[6] = Hydrophobicity (log P), octanol-saline shake-flask method; details: n-octanol / 0.9% NaCl shake-flask, platinum by ICP-MS, mean (n = 5)
[7] = system: plasma proteins
[8] = female Wistar rats, twice per week dosing schedule at the MTD, same protocol (JM216 by oral gavage), previous results ref McKeage et al, 1994, Screnci et al, 1997
[9] = female Wistar rats, twice per week dosing schedule at the MTD, intraperitoneal
[10] = rat plasma, 37C, initial half-life by one-phase exponential decay

Q: For `N.N.[Cl][Pt][Cl]` [Cisplatin], which “Time to development of altered SNCV” value ([1]; rat, in vivo, ip) is on record?
A: 7.0 weeks

Q: Which results are given for `O=C1[O][Pt-2]2([NH2+]C3CCCC[C@H]3[NH2+]2)[O]C1=O` (stereo partly drawn) [Oxaliplatin, R,R-(DACH)Pt(oxalato)]?
A: Time to development of altered SNCV [2, 8]: 3.0 weeks; Log kw [3]: 0.44 and 0.45

Q: What does the source list for `N.N.O=C([O-])C1(C(=O)[O-])CCC1.[Pt+2]` [Carboplatin]?
A: t (h), half-life of binding to plasma proteins in vitro [4]: 48.6 h; Time to development of altered SNCV [1, 9]: 8.0 weeks; Incidence of neurotoxicity in patients % (95% CI) ([5]; ref Canetta et al, 1985): 5.8 (3.8-8.5) %; Log kw [3]: 0.20; Log P [6]: -2.3; Log P ([6]; listed as carboplatin): -2.30

Q: Which “t (h), half-life of binding to plasma proteins in vitro” value (shortened to “t (h), half-life of binding”) [7, 10] does the source give for `NC1CCCCC1N.[Cl-].[Cl-].[Cl-].[Cl-].[Pt+4]` (stereo not drawn) [S,S-(DACH)PtCl4] here?
A: 0.78 h

Q: What about the “Time to development of altered SNCV” value ([2]; rat, in vivo, po) of the same compound?
A: 7.0 weeks

Q: And the Log kw [3]?
A: 0.41

Q: With `NC1CCCCC1N.O=C([O-])C(=O)[O-].[Pt+2]` (stereo not drawn) [S,S-(DACH)Pt oxalato] as the compound, how does the “t (h), half-life of binding” value ([7]; rat, plasma) read?
A: 1.21 h

Q: And the “Time to development of altered SNCV” value ([2]; rat, in vivo, po)?
A: 7.0 weeks

Q: And the Log kw [3]?
A: 0.44 and 0.45

Q: Which “t (h), half-life of binding” value [7, 10] does the source give for `CC(=O)[O][Pt]([NH2])([Cl])([Cl])([NH]C1CCCCC1)[O]C(C)=O` [JM216, bis-acetato-ammine-dichloro-cyclohexylamine-platinum(IV)] here?
A: 65 h

Q: And the “Time to development of altered SNCV” value [2, 8]?
A: > 20.5 weeks

Q: And the “Incidence of neurotoxicity in patients % (95% CI)” value ([5]; ref Judson et al, 1997)?
A: 5.6 (0-27) %

Q: And the Log kw [3]?
A: 2.27 and 2.40

Q: What about the “Log P” value [6] of the same compound?
A: -0.16

Q: Which “t (h), half-life of binding” value [7, 10] does the source give for `NC1CCCCC1N.[Cl-].[Cl-].[Cl-].[Cl-].[Pt+4]` (stereo not drawn) [R,R-(DACH)PtCl4] here?
A: 0.97 h

Q: And the “Time to development of altered SNCV” value ([2]; rat, in vivo, po)?
A: 4.0 weeks

Q: What about the Log kw [3] of the same compound?
A: 0.40 and 0.42

Q: For `N[C@@H]1CCCC[C@H]1N.[Cl][Pt+2]([Cl])([Cl])[Cl]` (racemic) [Ormaplatin, rac-(DACH)PtCl4], which “Neurotoxic potency (cumulative dose causing altered SNCV)” value ([1]; female Wistar rats, repeated treatment twice per week at the MTD, intraperitoneal) is on record?
A: 26.0

Q: And the “Time to development of altered SNCV” value [1, 9]?
A: 6.0 weeks

Q: What about the “Incidence of neurotoxicity in patients % (95% CI)” value ([5]; ref Schilder et al, 1994, O'Rourke et al, 1998) of the same compound?
A: 87 (47-100) %

Q: And the Log kw [3]?
A: 0.40 and 0.41

— PMC2374394, “Relationships between hydrophobicity, reactivity, accumulation and peripheral nerve toxicity of a series of platinum drugs” (British Journal of Cancer, 2000)
